Assay [1] has as its system E. faecalis. In words: Antimicrobial test, broth microdilution MIC. It counts as cell-based, Enterococcus faecalis (ATCC 29212). To be noted: Enterococcus faecalis, 24 hours, read-out: Minimum inhibitory concentration, E. faecalis. The method, then: (§1) This study used standard strains of bacteria known to be resistant to antibiotics. These isolates were identified as three gram-positive bacteria: Bacillus subtilis, Staphylococcus aureus (ATCC 29213) and Enterococcus faecalis (ATCC 29212); and two Gram-negative bacteria: Escherichia coli (ATCC 25922) and Pseudomonas aeruginosa (ATCC 27853). The strains were grown in blood medium one night before the broth microdilution method was used. They were then passaged and stored in tryptic soy broth (TSB) at -20°C for repeat experiments. Bacterial strains were passaged in blood medium and incubated in an oven at 35 ± 2°C for 18–24 hours. At least 3–5 similar colonies were selected from the culture plate. These were picked up with a loop and transferred to 4–5 mL of liquid medium (e.g. tryptic soy broth). The broth was incubated at 35°C until the turbidity reached McFarland 0.5 (approximately 2–6 hours). The density of the culture in the broth was determined by preparing a bacterial solution with a McFarland density of 0.5. The microdilution method was used to determine MIC values. Standards were dissolved in DMSO. Positive controls were prepared with penicillin, fluconazole and gentamicin.
(§2) It was prepared at concentrations of 1, 2, 4, 8, 16, 32, 64, 128, 256 and 512 µg/mL. 1% DMSO was used as a solvent control. Compounds were spiked at initial test control concentrations of 250 µg/mL in MHB. MHB was added to all wells except the first well. 100 µl of compounds were added to the first well. Serial dilutions were then made and diluted to the minimum concentration (1 µg/ml). Then 0.5 McFarland was prepared from bacteria incubated in MHB for 1 night. Then 50 µl of bacterial suspension was added to each well. The plates were incubated at 37°C for 24 hours. The microplates were then read in the spectrophotometer at a wavelength of 620 nm.
(§3) 100 µl of MHB was added to each well of a 12-well U-bottom microplate. 100 μL of the previously prepared NHC precursor drug was taken and transferred to the first well, and 100 μL was taken again by pipetting and transferred to the second well. In this way, dilutions were made sequentially up to the 11th well. No NHC precursor was added to the 12th well, which was used as a positive control. Then 100 μL of the prepared 5 x 10^5 CFU/mL bacterial suspension was taken and added to all wells without adding to the 11th well. The 11th well was used as a negative control ([Demirhan et al., 2024]). The same study was performed for all NHC precursors. The microplates were then incubated at 35°C for 24 hours. The lowest concentration at which no growth occurred for all strains was determined as the MIC.
On the technique in general: In broth dilution the organism is exposed to a series of concentrations in liquid medium.

For assay [2], the system named is E. coli. Nature of the assay: Antimicrobial test, broth microdilution MIC. In kind it is cell-based, Escherichia coli (ATCC 25922). To be noted: Escherichia coli, 24 hours, read-out: Minimum inhibitory concentration, E. coli. The method, then: as §1, §2, §3
The test system of assay [3] is S. aureus. Nature of the assay: Antimicrobial test, broth microdilution MIC. It counts as cell-based, Staphylococcus aureus (ATCC 29213). To be noted: Staphylococcus aureus, 24 h, read-out: Minimum inhibitory concentration, S. aureus. The method, then:
as §1, §2, §3

The target of assay [4] is AChE (Homo sapiens, UniProt P22303). In words: biochemical. To be noted: for Ki: Lineweaver-Burk curves; for Ki / IC50: means of triplicate assays ± SEM; for AChE inhibition type: from Lineweaver-Burk curves; for IC50: 30°C. The method, then: Reaction mixtures contained the 50 μL of 5,5′-dithio-bis(2-nitro-benzoic)acid compound (DTNB) and 100 μL of Tris–HCl solution (1 M, pH 8.0), and 20 μL AChE solution in total volume of 1 mL. The mixture was then incubated and mixed for 15 min at 30°C. Next, The reaction was started by adding 50 μL of acetylthiocholine iodide, and carried out for 5 min at 30°C. After adding substrate, the change in absorbance at 0 and 5 minutes was recorded at 412 nm.
AChE activities were determined at 30°C by using five concentrations of acetylthiocholine iodide and three concentrations of compounds.

The test system of assay [5] is P. aeruginosa. Nature of the assay: Antimicrobial test, broth microdilution MIC. In kind it is cell-based, Pseudomonas aeruginosa (ATCC 27853). To be noted: Pseudomonas aeruginosa, 24 hours, read-out: Minimum inhibitory concentration, P. aeruginosa. The method, then:
as §1, §2, §3

Sequence of AChE (P22303 32-614): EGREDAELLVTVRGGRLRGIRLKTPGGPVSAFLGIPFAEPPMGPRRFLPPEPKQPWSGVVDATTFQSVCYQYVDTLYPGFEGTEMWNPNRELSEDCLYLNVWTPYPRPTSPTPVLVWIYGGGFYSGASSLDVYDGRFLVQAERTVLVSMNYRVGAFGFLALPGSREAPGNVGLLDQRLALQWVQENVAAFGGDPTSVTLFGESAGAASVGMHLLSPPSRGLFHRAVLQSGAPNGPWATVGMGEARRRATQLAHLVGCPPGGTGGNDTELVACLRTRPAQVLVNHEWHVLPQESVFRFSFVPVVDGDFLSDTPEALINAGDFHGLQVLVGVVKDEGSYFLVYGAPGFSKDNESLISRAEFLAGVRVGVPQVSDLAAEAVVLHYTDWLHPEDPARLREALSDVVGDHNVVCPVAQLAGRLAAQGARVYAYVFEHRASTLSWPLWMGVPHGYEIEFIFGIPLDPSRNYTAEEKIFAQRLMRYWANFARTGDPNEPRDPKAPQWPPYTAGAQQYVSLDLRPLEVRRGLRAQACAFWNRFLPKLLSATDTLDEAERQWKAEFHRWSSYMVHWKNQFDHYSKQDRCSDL

With `CC(=O)c1ccc(-n2cc[n+](CCN3CCOCC3)c2)cc1.Cl.[Cl-]` [Compound 1a, 1-(4-acetylphenyl)-3-(2-morpholino)ethylimidazolium chloride hydrochloride], the MIC came out at 50 mg/L in assay [1], 200 mg/L in assay [2], 25 mg/L in assay [3] and 200 mg/L in assay [5]. Besides, the Ki in assay [4] was 11.2 ± 1.05 µM. The AChE inhibition type entry in assay [4] is “Uncompetitive”. The molecule further yielded a half-maximal inhibitory concentration (IC50) in assay [4] of 14.8 ± 0.82 µM.

As for `CC(=O)c1ccc(-n2cc[n+](CCN3CCCCC3)c2)cc1.Cl.[Cl-]` [Compound 1b, 1-(4-acetylphenyl)-3-(2-piperidino)ethylimidazolium chloride hydrochloride], the MIC in assay [1] amounted to 50 mg/L; in assay [2] it was 200 mg/L; in assay [3], 12.5 mg/L; in assay [5], 200 mg/L. Moreover, in assay [4], the Ki worked out at 1.69 ± 0.08 µM. Moreover, the AChE inhibition type result in assay [4] is reported as “Uncompetitive”. The molecule further registered an IC50 in assay [4] of 2.21 ± 0.16 µM.

For the molecule `CC(=O)c1ccc(-n2cc[n+](CCN3CCCC3)c2)cc1.Cl.[Cl-]` [Compound 1c, 1-(4-acetylphenyl)-3-(2-pyrrolidino)ethylimidazolium chloride hydrochloride], the MIC came out at 50 mg/L in assay [1], 50 mg/L in assay [2], 25 mg/L in assay [3] and 25 mg/L in assay [5]. This molecule yielded a Ki in assay [4] of 8.05 ± 0.72 µM. Besides, the AChE inhibition type result in assay [4] is reported as “Uncompetitive”. In assay [4], this molecule displayed an IC50 of 10.5 ± 1.08 µM.

In the case of `Br.CC(=O)c1ccc(-n2cc[n+](Cc3ccccn3)c2)cc1.[Br-]` [Compound 1d, 1-(4-acetylphenyl)-3-(pyridin-2-yl)methylimidazolium bromide hydrobromide], the MIC is 10 mg/L in assay [1], 50 mg/L in assay [2], 50 mg/L in assay [3] and 200 mg/L in assay [5]. Further, in assay [4], affinity was put at a Ki of 0.8 ± 0.06 µM. For the same molecule, in assay [4], the AChE inhibition type result is recorded as “Uncompetitive”. Besides, in assay [4], it took 1.05 ± 0.07 µM to reach half-maximal inhibition (IC50).

For the molecule `Cl.O=Cc1ccc(-n2cc[n+](CCN3CCOCC3)c2)cc1.[Cl-]` [Compound 2a, 1-(4-formylphenyl)-3-(2-morpholino)ethylimidazolium chloride hydrochloride], the MIC was determined as 250 mg/L in assay [1], 200 mg/L in assay [2], 250 mg/L in assay [3] and 200 mg/L in assay [5]. For the same molecule, the Ki in assay [4] was 0.66 ± 0.03 µM. Besides, the AChE inhibition type result in assay [4] is listed as “Uncompetitive”. The molecule further yielded an IC50 in assay [4] of 0.87 ± 0.06 µM.

Regarding `Cl.O=Cc1ccc(-n2cc[n+](CCN3CCCCC3)c2)cc1.[Cl-]` [Compound 2b, 1-(4-formylphenyl)-3-(2-piperidino)ethylimidazolium chloride hydrochloride], the MIC stood at 50 mg/L in assay [1], 100 mg/L in assay [2], 250 mg/L in assay [3] and 200 mg/L in assay [5]. The molecule also returned a Ki in assay [4] of 0.78 ± 0.05 µM. The AChE inhibition type entry in assay [4] is “Uncompetitive”. The same molecule registered an IC50 in assay [4] of 1.02 ± 0.08 µM.

Consider `Cl.O=Cc1ccc(-n2cc[n+](CCN3CCCC3)c2)cc1.[Cl-]` [Compound 2c, 1-(4-formylphenyl)-3-(2-pyrrolidino)ethylimidazolium chloride hydrochloride], for which the MIC in assay [1] came out at 50 mg/L; in assay [2], 200 mg/L; in assay [3], 100 mg/L; in assay [5] it was 200 mg/L. Besides, the Ki in assay [4] was found to be 3.16 ± 0.24 µM. Moreover, the AChE inhibition type entry in assay [4] is on record as “Uncompetitive”. In assay [4], this molecule showed a half-inhibitory concentration (IC50) of 4.13 ± 0.25 µM.

For `Br.O=Cc1ccc(-n2cc[n+](Cc3ccccn3)c2)cc1.[Br-]` [Compound 2d, 1-(4-formylphenyl)-3-(pyridin-2-yl)methylimidazolium bromide hydrobromide], the MIC in assay [1] was 100 mg/L; in assay [2] it was 200 mg/L; in assay [3], 250 mg/L; in assay [5] it was 200 mg/L. The Ki in assay [4] is 0.63 ± 0.04 µM. For the same molecule, the AChE inhibition type entry in assay [4] was “Uncompetitive”. Further, in assay [4], 0.82 ± 0.06 µM corresponded to half-maximal inhibition (IC50).

One may read the Ki as the dissociation constant of the complex between target and ligand, obtained from inhibition or displacement. A lower Ki goes with higher affinity. One may read the IC50 as the concentration needed to halve the response being measured. Read a high IC50 as weaker potency.

These data come from PMC12313567 (Frontiers in Cellular and Infection Microbiology, 2025).
